# According to patent US20210283211A1, “COMPOSITIONS AND METHODS OF ALLEVIATING RESISTANCE TO CHEMOTHERAPY” (CITY OF HOPE, priority 2019, published 2021):
# “Also recorded” adds a separate entry of the source.
# Tests used:
# [1] = system: ITGB4 and PXN expression, γH2AX in H358 cells; test: Immunoblot after sublethal dose; format: cell-based, human; details: 72 hours
# Method: West blotting: Cell lysates were prepared with 1×RIPA buffer (MilliporeSigma) and denatured in 1× reducing sample buffer at 95° C. for 5 minutes. Protein samples (15 μg) were run on 4-15% TGX gels (Bio-Rad, Hercules, Calif., USA) and transferred onto nitrocellulose membranes (Bio-Rad). Blots were blocked with 5% non-fat milk in TBS-T for 1 hour at room temperature and probed with primary antibody diluted in 2.5% BSA in TBS-T overnight at 4° C. After three washes with TBS-T, blots were incubated with HRP-conjugated secondary antibodies for 2 hours at room temperature. After three more washes, bands of interest were visualized via chemiluminescence using Western Bright ECL HRP substrate (Advansta, Menlo Park, Calif., USA) and imaged with the ChemiDoc MP imager (Bio-Rad).
# (§1) Then a sublethal dose was used to determine the effect of these compounds on ITGB4 and PXN expression and caspase activity (FIG. 9I). […] These eleven compounds were further screened in the cisplatin-resistant cell line H2009. […] Further, carfilzomib was tested in another cisplatin-resistant cell line H1993.
# [2] = system: patient-derived organoids (lung cancer); test: Patient tumor tissue-derived organoid assay (area, caspase activity); format: cell-based, human
# Method: Next, drug efficacy in patient tumor tissue-derived organoids was determined. Approximately 5000 cells/sample from 2 surgical samples were seeded in an ultra-low attachment plate and incubated at 37° C. […] In one of the patient-derived organoids, cisplatin treatment alone decreased spheroid area and increased apoptosis as measured by green intensity (FIG. 11D). […] Indeed, by 72 hours carfilzomib at a concentration of 2.5 μM induced 5-fold increase in caspase activity compared to cisplatin alone but there was not much change in the spheroid area (FIGS. 11E-11F). Thus, no additive effect was apparent in this patient sample. […] The efficacy of ITGB4 antibody in disrupting organoid growth and inducing apoptosis was also tested.
# H2009 cells [3] = test: cells; format: cell-based; details: Homo sapiens
# Method: (§2) Cell viability assay: Cell Counting Kit-8 (CCK-8) was purchased from Dojindo Molecular Technologies (Rockville, Md., USA). Cells were seeded on a 96-well plate and allowed to adhere in complete medium for 24 hours. Test compounds were added to 100 μl of medium at the indicated concentrations for 72 hours. Ten μl of the CCK-8 reagent were added to each well and absorbance at 450 nm was measured using a Tecan Spark 10M multimode microplate reader.
# as §1
# H2009 cells [4] = test: IncuCyte cell proliferation and caspase-3/7 apoptosis assay; format: cell-based, human; details: 80 nM, 72 hours, among eleven compounds
# Method: Cell proliferation and apoptosis assay. Cell proliferation assays were performed using cell lines stably transfected with NucLight Red Lentivirus (Essen Bioscience) to accurately visualize and count the nucleus of a single cell. Cells were seeded on a 96-well plate and allowed to adhere for 24 hours. Test compounds were added at indicated concentrations. Caspase-3/7 Green Apoptosis Reagent (Essen Bioscience) was also added as a green fluorescent indicator of caspase-3/7-mediated apoptotic activity. To monitor cell proliferation and apoptosis over time, the plate was placed in the IncuCyte S3 Live-Cell Analysis System (Essen BioScience) and images were acquired every 2 hours. Data analysis was generated by the IncuCyte software using a red fluorescence mask to accurately count each cell nucleus and a green fluorescence mask to measure apoptosis over time.
# To determine whether the inhibition in cell proliferation associated with ITGB4 knockdown was due to enhanced apoptosis or reduced cell division (cytostatic), the Essen Bioscience Caspase-3/7 Green apoptosis assay in live cells was conducted. The NucView™[…], a DNA intercalating dye was used to enable quantification of apoptosis over time. The dye is impermeable and non-toxic to cells but once the cell membrane is permeabilized by caspase-3/7, the dye enters the cell and gets activated due to change in pH leading to the generation of green fluorescence that is then detected in real time and quantified using the IncuCyte System (FIG. 4B).
# To address this, H1993 and H2009 cells were treated with cisplatin for 3 days and the changes were analyzed by immunoblotting. […] Next, H1993 and H2009 cells were transiently transfected with ITGB4 siRNA and 24 hours post-transfection they were treated with 10 μM cisplatin and cell proliferation and caspase activity were determined. […] However, in response to cisplatin in ITGB4 knockdown cells, the fold change dipped to <1, alluding to a cytotoxic effect (FIG. 4C). […] However, cell death was not due to caspase activation but appeared to be due to cell bursting which is seen in anoikis (FIGS. 3K and 3L).
# [5] = system: ITGB4, PXN, USP1, VDAC1, CD133 in patient-derived organoids; test: Immunoblot of treated patient-derived organoids; format: cell-based, human; details: 48 hours, printed 2.5 mM and 5 mM
# H358 cells = test: Cell-based rescreen of top virtual-screen hits, IC50 determination; details: Homo sapiens, NCI-H358, 0.1 μM to 10 μM, 72 hours
# Method: as §2
# A virtual screen of a library of 1440 FDA-approved drugs using binding pockets in the N-terminal domain of PXN (FIG. 9H) identified several putative hits. The top 40 hits were then rescreened employing a cell-based assay to determine their efficacy using H358 cells.
structure (smiles),measurement,setting,value
CC(C)C[C@H](NC(=O)[C@H](CCc1ccccc1)NC(=O)CN1CCOCC1)C(=O)N[C@@H](Cc1ccccc1)C(=O)N[C@@H](CC(C)C)C(=O)[C@@]1(C)CO1 [Carfilzomib],"apoptosis, DNA damage (γH2AX) and ITGB4 expression",[1],induced apoptosis and caused DNA damage
same,spheroid area,[2]; patient LCSC2,decreased the spheroid area
same,"caspase activity, combination with cisplatin","[2]; patient LCSC2, both drugs combined",enhanced
same,"apoptosis, combination with cisplatin","[2]; patient LCSC4, carfilzomib and cisplatin combined",did not have an additive effect
same,organoid size,"[2]; patient LCSC4, cisplatin 5 μM alone, carfilzomib 2.5 μM alone",decreased the size of the organoid
same,induction of apoptosis (caspase activity) compared to cisplatin alone,"[2]; patient LCSC4 organoids, 2.5 μM, by 72 hours",5 fold
same,increase in apoptosis (caspase activity),[2]; second patient (LCSC2) organoids,~50 fold
same,cytotoxicity at 0.08 µM,"H2009 cells [3]; NCI-H2009, 72 h, read-out: reduction in the cell viability",80%
same,IC50,"H2009 cells [3]; NCI-H2009, H2009 cells, increasing dose, 72 hours",418 nM
same,inhibitory effect in cell proliferation,H2009 cells [4],greatest inhibitory effect in cell proliferation
same,protein expression by immunoblot,[5],"decrease in the expression of ITGB4, USP1, PXN and VDAC1; also recorded: decreased expression of ITGB4, PXN, USP1, VDAC1 and CD133"
same,IC50,H358 cells,0.8 nM
